Reference: patent US12697366B2, “Thermogenic compositions and methods” (Ohio State Innovation Foundation, priority 2016, dated 2026)

Key:
[1] = tested on: human brain endothelial cells (hBEC); experiment: FD-glucose uptake in human brain endothelial cells (hBEC); type: cell-based; settings: hINS 1.7 μM, AAC2 0.1 μM, 50 min; FIG. 42B
Experimental: FD-glucose uptake in human brain endothelial cells (hBEC, n=8 per treatment) treated with vehicle (Veh; PBS, open bar) or hINS (1.7 μM), human leptin (hLep; 62.5 nM, hatched bar), or AAC2 (0.1 μM black bar) in the presence and absence of GLUT1 inhibitor (BAY-876; 10 nM in DMSO). Cells were pre-treated with or without BAY-876 for 40 min and then FD glucose and treatment reagents were added for additional 50 min of incubation. Data (%) was normalized to FD-glucose uptake in control (Veh) hBEC without inhibitor (100%).

STZ mice = experiment: AAC2, INS and AAC2-INS treatment of STZ mice (streptozotocin-induced type 1 diabetes); settings: mouse, in vivo
Experimental: The untreated STZ mice died 32 days after STZ induction of experimental type 1 diabetes. […] Liver toxicity was measured by plasma levels of liver enzyme aspartate aminotransferase (AST).
Human INS was used for treatment to distinguish from endogenous mouse INS. […] Insulin tolerance test (ITT) was used to assess insulin sensitivity. […] Glucose tolerance test (GTT) was used to assess glucose tolerance.
[…] SLC6A6 is a principal transporter for neurotransmitter and osmolyte taurine, in all treated STZ mice. […] MVK a key kinase in cholesterol synthesis pathway. […] GPX6 a key antioxidant enzyme induced in the liver in response to oxidative stress.
Cognitive performance was measured using Barnes maze behavioral test to measure spatial learning (escape latency (60B) and number of errors (60C)) and memory (60D).

3T3-L1 adipocytes = experiment: Thermogenic gene expression in 3T3-L1 adipocytes (TaqMan / RT-PCR); type: cell-based, mouse
Experimental: FIGS. 9A to 9D show DRG neurons (500 neurons per well) cultured in DRG culture medium only, or DRG culture medium with NT-3 (1 ng/mL), with NGF (10 ng/mL), with WT secretome (1/1, v/v), or with Aldh1a1^−/− secretome (1/1, v/v) for 24 hours. WT and Aldh1a1^−/− adipocytes differentiated for 5 days. Secretome is the media collected from these cells for 24 h. Neurite outgrowth parameters were assayed using the Thermo Scientific™ ArrayScan™ XTI Live High Content microscope and analyzed with the Neuronal Profiling Algorithm (ThermoFisher). Nine independent experiments were performed using DRG from three mice. Each DRG batch was analyzed in triplicate. Data are shown as mean±SD obtained with one DRG batch. Asterisks indicate P<0.05 between different groups; Mann-Whitney U test. FIG. 9A: Representative images show ~25% of area used for the automatic quantification of neuronal parameters in FIG. 3 per one condition. […] FIG. 9B: Secreted EFNA5 levels in the medium from 3T3-L1 preadipocytes and adipocytes differentiated for 4d were analyzed by ELISA. FIG. 9C: Basal metabolic rate (heat) was measured in PBS- and EFNA5-injected mice from Table 1, Study 4 by an open circuit indirect calorimetry treadmill. […] Expression was measured by RT-PCR and normalized by 18S.
FIGS. 11A to 11I show adipokine Ereg is bilaterally associated with obesity and thermogenesis and activates PPARα. […] FIG. 11B: Ereg expression was measured in non-differentiated and differentiated (day 5) 3T3-L1 adipocytes (Mann-Whitney test) using a customized NanoString mouse panel. FIG. 11C: Ereg expression was measured in differentiated (day 5) 3T3-L1 and Aldh1a1^−/− adipocytes by Taqman and normalized to TATA box protein (TBP). FIG. 11D: Plasma EREG concentrations were measured in mice from Study 1 by western blot. […] FIG. 11E: Plasma EREG concentrations were measured and quantified in iAb of WT and ob/ob mice from Study 2 by western blot (n=5 per each group). […] FIG. 11F: EREG was measured in iAb, subcutaneous and brown fat by western blot. […] Expression level were measured by Taqman and normalized by TBP. […]

Substance	glucose uptake in human blood-brain barrier endothelial cells [1]	expression of Glutathone peroxidase (GPX6) (STZ mice)	expression of insulin 1 gene (Ins1) in the brain (STZ mice)	expression of thermogenic gene Pgc1a (3T3-L1 adipocytes; 10 ng/ml recombinant EREG, FIG. 22)	Ucp1 and Ucp2 expression (3T3-L1 adipocytes; recombinant EREG 50 ng/mL, day 5)
insulin: insulin (bovine or human)	not	significantly increased	detrimental suppression		
EREG: Epiregulin, member of the epidermal growth factor family; recombinant mouse or human protein				increases	induced
